Tests used:
[1] = target: rat P2X7 (Rattus norvegicus (Rat), UniProt Q64663); experiment: Rat P2X7 functional assay (Ca2+ influx, Fluo-4, FDSS); type: cell-based; conditions: HEK293 cells stably expressing rat P2X7; BzATP final 10 microM; 7-point dose-response; read-out: Antagonistic activities with respect to the rat P2X7 receptor (IC50)
Outline: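 IC50 derived from 7-point dose-response in duplicate, measuring inhibition of BzATP-evoked (final 10 microM) intracellular Ca2+ increase by Fluo-4 fluorescence on FDSS. Rat P2X7-HEK293 cells were exposed to compound for 10 min in the dark beforehand.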

[2] = target: human P2X7 (Homo sapiens (Human), UniProt Q99572); experiment: Human P2X7 functional assay (Ca2+ influx, Fluo-4, FDSS); type: cell-based; conditions: antagonistic activity with respect to the human P2X7 receptor; BzATP final concentration 80 microM
Outline: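 Ca2+ influx was triggered with BzATP (80 μM final) after a 10-min room-temperature compound preincubation and monitored with Fluo-4 (ex 480/em 540 nm) on FDSS. The cells were HEK293 stably carrying FLAG-tagged human P2X7. Duplicate-averaged 7-point dose-responses gave IC50s.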

Chain of rat P2X7 (Q64663 whole entry): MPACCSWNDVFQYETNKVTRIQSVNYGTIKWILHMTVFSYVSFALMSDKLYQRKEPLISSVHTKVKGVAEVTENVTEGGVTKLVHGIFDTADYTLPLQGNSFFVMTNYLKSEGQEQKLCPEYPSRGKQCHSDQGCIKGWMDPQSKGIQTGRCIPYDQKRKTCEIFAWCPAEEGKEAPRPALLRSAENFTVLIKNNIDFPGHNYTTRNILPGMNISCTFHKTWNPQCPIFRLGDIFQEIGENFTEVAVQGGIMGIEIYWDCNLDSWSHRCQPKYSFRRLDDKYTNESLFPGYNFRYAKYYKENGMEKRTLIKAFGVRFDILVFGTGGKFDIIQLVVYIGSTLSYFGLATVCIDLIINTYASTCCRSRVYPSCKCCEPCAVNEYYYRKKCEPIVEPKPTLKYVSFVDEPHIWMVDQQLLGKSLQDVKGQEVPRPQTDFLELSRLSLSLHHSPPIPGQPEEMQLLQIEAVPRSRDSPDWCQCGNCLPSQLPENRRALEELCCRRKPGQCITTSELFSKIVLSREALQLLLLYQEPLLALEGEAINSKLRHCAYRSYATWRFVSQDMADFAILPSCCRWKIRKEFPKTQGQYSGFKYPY
Chain of human P2X7 (Q99572 whole entry): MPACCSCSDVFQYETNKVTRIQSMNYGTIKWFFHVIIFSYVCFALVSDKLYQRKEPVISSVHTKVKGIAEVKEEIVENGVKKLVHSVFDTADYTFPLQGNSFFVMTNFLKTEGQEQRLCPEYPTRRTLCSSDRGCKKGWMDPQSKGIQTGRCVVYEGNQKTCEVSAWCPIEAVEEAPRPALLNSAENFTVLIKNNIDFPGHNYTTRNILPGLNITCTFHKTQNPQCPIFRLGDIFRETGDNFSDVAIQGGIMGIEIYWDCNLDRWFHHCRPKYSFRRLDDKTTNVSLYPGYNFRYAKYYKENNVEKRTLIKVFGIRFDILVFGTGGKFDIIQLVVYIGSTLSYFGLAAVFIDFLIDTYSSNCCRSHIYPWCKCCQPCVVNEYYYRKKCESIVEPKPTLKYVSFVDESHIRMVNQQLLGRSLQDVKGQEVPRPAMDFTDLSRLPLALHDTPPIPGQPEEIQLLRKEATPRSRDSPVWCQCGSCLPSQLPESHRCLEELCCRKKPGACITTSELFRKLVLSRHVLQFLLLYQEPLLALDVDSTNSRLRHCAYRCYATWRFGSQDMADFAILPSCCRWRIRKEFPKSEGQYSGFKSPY

SMILES | IC50 [1] [µM] | IC50 [2] [µM]
C[S+]([O-])C[C@]1(O)CC[C@@](F)(C(=O)NCc2ccc(F)cc2Cl)c2cccnc21 (stereo partly drawn) [Example 296, (5S,8S)-N-(2-chloro-4-fluorobenzyl)-5-fluoro-hydroxy-8-((methylsulfinyl)methyl)-5,6,7,8-tetrahydroquinoline-5-carboxamide] | < 1 | 0.05 to 0.1
CS(=O)(=O)C[C@]1(O)CC[C@@](F)(C(=O)NCc2ccc(F)cc2Cl)c2cccnc21 [Example 299, (5S,8S)-N-(2-chloro-4-fluorobenzyl)-5-fluoro-8-hydroxy-8-((methylsulfonyl)methyl)-5,6,7,8-tetrahydroquinoline-5-carboxamide] | < 1 | 0.101 to 0.3
O=C(NCc1ccc(F)cc1Cl)[C@]1(F)CC[C@@](O)(CS(=O)(=O)CCO)c2ncccc21 [Example 301, (5S,8S)-N-(2-chloro-4-fluorobenzyl)-5-fluoro-8-hydroxy-8-(((2-hydroxyethyl)sulfonyl)methyl)-5,6,7,8-tetrahydroquinoline-5-carboxamide] | < 1 | 0.05 to 0.1
O=C(NCc1ccc(F)c(F)c1F)[C@]1(F)CC[C@@](O)(CO)c2ncccc21 [Example 308, (5S,8S)-5-fluoro-8-hydroxy-8-(hydroxymethyl)-N-(2,3,4-trifluorobenzyl)-5,6,7,8-tetrahydroquinoline-5-carboxamide] | < 1 | 0.101 to 0.3
O=C(NCc1ccc(F)c(F)c1F)[C@]1(F)CC[C@](O)(CO)c2ncccc21 [Example 309, (5S,8R)-5-fluoro-8-hydroxy-8-(hydroxymethyl)-N-(2,3,4-trifluorobenzyl)-5,6,7,8-tetrahydroquinoline-5-carboxamide] | < 1 | 1 to 3
O=C(NCc1c(F)cc(Cl)cc1Cl)[C@]1(F)CC[C@@](O)(CO)c2ncccc21 [Example 310, (5S,8S)-N-(2,4-dichloro-6-fluorobenzyl)-5-fluoro-8-hydroxy-8-(hydroxymethyl)-5,6,7,8-tetrahydroquinoline-5-carboxamide] | < 1 | < 0.05
O=C(NCc1c(F)cc(Cl)cc1Cl)[C@]1(F)CC[C@](O)(CO)c2ncccc21 [Example 311, (5S,8R)-N-(2,4-dichloro-6-fluorobenzyl)-5-fluoro-8-hydroxy-8-(hydroxymethyl)-5,6,7,8-tetrahydroquinoline-5-carboxamide] | < 1 | 0.05 to 0.1
O=C(NCc1ccc(F)c(F)c1Cl)[C@]1(F)CC[C@@](O)(CO)c2ncccc21 [Example 312, (5S,8S)-N-(2-chloro-3,4-difluorobenzyl)-5-fluoro-8-hydroxy-8-(hydroxymethyl)-5,6,7,8-tetrahydroquinoline-5-carboxamide] | < 1 | < 0.05
O=C(NCc1ccc(F)c(F)c1Cl)[C@]1(F)CC[C@](O)(CO)c2ncccc21 [Example 313, (5S,8R)-N-(2-chloro-3,4-difluorobenzyl)-5-fluoro-8-hydroxy-8-(hydroxymethyl)-5,6,7,8-tetrahydroquinoline-5-carboxamide] | < 1 | 0.05 to 0.1
O=C(NCc1c(Cl)cc(Cl)cc1CO)[C@]1(F)CC[C@@](O)(CO)c2ncccc21 [Example 316, (5S,8S)-N-(2,4-dichloro-6-(hydroxymethyl)benzyl)-5-fluoro-8-hydroxy-8-(hydroxymethyl)-5,6,7,8-tetrahydroquinoline-5-carboxamide] | < 1 | < 0.05
O=C(NCc1c(Cl)cc(F)cc1CO)[C@]1(F)CC[C@@](O)(CO)c2ncccc21 [Example 317, (5S,8S)-N-(2-chloro-4-fluoro-6-(hydroxymethyl)benzyl)-5-fluoro-8-hydroxy-8-(hydroxymethyl)-5,6,7,8-tetrahydroquinoline-5-carboxamide] | < 1 | < 0.05
O=C(NCc1ccc(F)cc1F)[C@]1(F)CC[C@@](O)(CO)c2ncccc21 [Example 318, (5S,8S)-N-(2,4-difluorobenzyl)-5-fluoro-8-hydroxy-8-(hydroxymethyl)-5,6,7,8-tetrahydroquinoline-5-carboxamide] | < 1 | 0.301 to 1
O=C(NCc1ccc(Cl)c(F)c1Cl)[C@]1(F)CC[C@@](O)(CO)c2ncccc21 [Example 319, (5S,8S)-N-(2,4-dichloro-3-fluorobenzyl)-5-fluoro-8-hydroxy-8-(hydroxymethyl)-5,6,7,8-tetrahydroquinoline-5-carboxamide] | < 1 | < 0.05
O=C(NCc1c(F)cc(F)cc1Cl)[C@]1(F)CC[C@@](O)(CO)c2ncccc21 [Example 321, (5S,8S)-N-(2-chloro-4,6-difluorobenzyl)-5-fluoro-8-hydroxy-8-(hydroxymethyl)-5,6,7,8-tetrahydroquinoline-5-carboxamide] | < 1 | < 0.05

The next lines start with the values.

IC50 [1] [µM] | IC50 [2] [µM] | SMILES
< 1 | 0.101 to 0.3 | O=C1NC[C@]2(CC[C@@](F)(C(=O)NCc3ccc(Cl)cc3Cl)c3cccnc32)O1 [Example 291, (5S,5′S)-N-(2,4-dichlorobenzyl)-5′-fluoro-2-oxo-6′,7′-dihydro-5′H-spiro [oxazolidine-5,8′-quinoline]-5′-carboxamide]
< 1 | 0.05 to 0.1 | O=C1NC[C@@]2(CC[C@@](F)(C(=O)NCc3ccc(Cl)cc3Cl)c3cccnc32)O1 [Example 292, (5R,5′S)-N-(2,4-dichlorobenzyl)-5′-fluoro-2-oxo-6′,7′-dihydro-5′H-spiro [oxazolidine-5,8′-quinoline]-5′-carboxamide]
< 1 | 0.05 to 0.1 | O=C1CO[C@@]2(CC[C@@](F)(C(=O)NCc3ccc(Cl)cc3Cl)c3cccnc32)CN1 [Example 294, (2S,5′S)-N-(2,4-dichlorobenzyl)-5′-fluoro-5-oxo-6′,7′-dihydro-5′H-spiro [morpholine-2,8′-quinoline]-5′-carboxamide]
< 1 | < 0.05 | O=C1CO[C@]2(CC[C@@](F)(C(=O)NCc3ccc(Cl)cc3Cl)c3cccnc32)CN1 [Example 295, (2R,5′S)-N-(2,4-dichlorobenzyl)-5′-fluoro-5-oxo-6′,7′-dihydro-5′H-spiro [morpholine-2,8′-quinoline]-5′-carboxamide]
< 1 | < 0.05 | CS(=O)(=O)C[C@]1(O)CC[C@@](F)(C(=O)NCc2ccc(Cl)cc2Cl)c2cccnc21 [Example 298, (5S,8S)-N-(2,4-dichlorobenzyl)-5-fluoro-8-hydroxy-8-((methylsulfonyl)methyl)-5,6,7,8-tetrahydroquinoline-5-carboxamide]
< 1 | < 0.05 | O=C(NCc1ccc(Cl)cc1Cl)[C@]1(F)CC[C@@](O)(CS(=O)(=O)CCO)c2ncccc21 [Example 300, (5S,8S)-N-(2,4-dichlorobenzyl)-5-fluoro-8-hydroxy-8-(((2-hydroxyethyl)sulfonyl)methyl)-5,6,7,8-tetrahydroquinoline-5-carboxamide]
< 1 | 0.101 to 0.3 | O=C(NCc1ccc(Cl)cc1Cl)[C@@]1(F)CC[C@](O)(CO)c2ncccc21 [Example 302, (5R,8R)-N-(2,4-dichlorobenzyl)-5-fluoro-8-hydroxy-8-(hydroxymethyl)-5,6,7,8-tetrahydroquinoline-5-carboxamide]
< 1 | 1 to 3 | O=C(NCc1ccc(Cl)cc1Cl)[C@@]1(F)CC[C@@](O)(CO)c2ncccc21 [Example 303, (5R,8S)-N-(2,4-dichlorobenzyl)-5-fluoro-8-hydroxy-8-(hydroxymethyl)-5,6,7,8-tetrahydroquinoline-5-carboxamide]
< 1 | < 0.05 | O=C(NCc1ccc(Cl)cc1Cl)[C@]1(F)CC[C@@](O)(CO)c2ncccc21 [Example 304, (5S,8S)-N-(2,4-dichlorobenzyl)-5-fluoro-8-hydroxy-8-(hydroxymethyl)-5,6,7,8-tetrahydroquinoline-5-carboxamide]
< 1 | < 0.05 | O=C(NCc1ccc(Cl)cc1Cl)[C@]1(F)CC[C@](O)(CO)c2ncccc21 [Example 305, (5S,8R)-N-(2,4-dichlorobenzyl)-5-fluoro-8-hydroxy-8-(hydroxymethyl)-5,6,7,8-tetrahydroquinoline-5-carboxamide]
< 1 | < 0.05 | O=C(NCc1ccc(F)cc1Cl)[C@]1(F)CC[C@@](O)(CO)c2ncccc21 [Example 306, (5S,8S)-N-(2-chloro-4-fluorobenzyl)-5-fluoro-8-hydroxy-8-(hydroxymethyl)-5,6,7,8-tetrahydroquinoline-5-carboxamide]
< 1 | 0.301 to 1 | O=C(NCc1ccc(F)cc1Cl)[C@]1(F)CC[C@](O)(CO)c2ncccc21 [Example 307, (5S,8R)-N-(2-chloro-4-fluorobenzyl)-5-fluoro-8-hydroxy-8-(hydroxymethyl)-5,6,7,8-tetrahydroquinoline-5-carboxamide]
< 1 | 0.101 to 0.3 | O=C(NCc1ccc(Cl)cc1F)[C@]1(F)CC[C@@](O)(CO)c2ncccc21 [Example 314, (5S,8S)-N-(4-chloro-2-fluorobenzyl)-5-fluoro-8-hydroxy-8-(hydroxymethyl)-5,6,7,8-tetrahydroquinoline-5-carboxamide]
< 1 | 1 to 3 | O=C(NCc1ccc(Cl)cc1F)[C@]1(F)CC[C@](O)(CO)c2ncccc21 [Example 315, (5S,8R)-N-(4-chloro-2-fluorobenzyl)-5-fluoro-8-hydroxy-8-(hydroxymethyl)-5,6,7,8-tetrahydroquinoline-5-carboxamide]
< 1 | < 0.05 | O=C(NCc1ccc(F)c(Cl)c1Cl)[C@]1(F)CC[C@@](O)(CO)c2ncccc21 [Example 320, (5S,8S)-N-(2,3-dichloro-4-fluorobenzyl)-5-fluoro-8-hydroxy-8-(hydroxymethyl)-5,6,7,8-tetrahydroquinoline-5-carboxamide]
